# Laboratory results published in patent publication US20040038369A1, “Airway-specific trypsin-like enzymes and method of using the same” (priority 2000, published 2004).
# Columns and labels:
# [1] = system: Muc5AC mRNA in NCI-H292 cells; experiment: Muc5AC mRNA expression in NCI-H292 by real time PCR; assay type: cell-based, human; conditions: HAST 300 mU/mL, 24 hours
# Protocol: NCI-H292 cells (purchased from ATCC) were suspended in 10% FCS-containing RPMI-1640 (produced by Gibco Corp.), sowed on a 96 well plate (produced by Falcon Corp.) in a density of 6.0×10^4 cells/cm^2, cultured for 72 hours, subjected to the replacement of the culture solution by RPMI-1640 containing 0.1% of BSA, and further cultured for 24 hours.
# Before added to the cells, leupeptin in various concentrations was reacted with 300 mU/mL of HAST on ice for 30 minutes, and further heated at 37° C. Then, the culture solution in the wells was wholly exchanged by the culture medium containing the HAST or leupeptin to start the treatment, and the treatment was carried out for 24 hours. HAST (300 mU/mL) thermally treated at 99° C. for 10 minutes as a control, EGF alone (1 ng/mL), and a combination of EGF (5 ng/mL) with leupeptin (10^−5 M) were also similarly treated. The number of the samples was 3.
# An EGF treatment sample was continuously diluted five times to prepare a standard. […]
# (§1) For both the Muc5AC and the β-actin, the expression quantities of the samples were relatively compared from the obtained Ct values and the standard straight line. […]
# as §1
# PAR-1 = target: T1, PAR-1 (Homo sapiens, UniProt P25116); experiment: Calcium influx in PAR-1-expressing insect cells; assay type: cell-based; conditions: AST 2 units/mL; trypsin, thrombin 0.1 to 10 units/mL; SFLLRNamide 10 to 100 μM
# T1 construct: expressed in transfected cells; host or cells: Sf9 insect cells infected with recombinant baculovirus VL-PAR (pVL1393)
# T1 sequence (P25116 22-425): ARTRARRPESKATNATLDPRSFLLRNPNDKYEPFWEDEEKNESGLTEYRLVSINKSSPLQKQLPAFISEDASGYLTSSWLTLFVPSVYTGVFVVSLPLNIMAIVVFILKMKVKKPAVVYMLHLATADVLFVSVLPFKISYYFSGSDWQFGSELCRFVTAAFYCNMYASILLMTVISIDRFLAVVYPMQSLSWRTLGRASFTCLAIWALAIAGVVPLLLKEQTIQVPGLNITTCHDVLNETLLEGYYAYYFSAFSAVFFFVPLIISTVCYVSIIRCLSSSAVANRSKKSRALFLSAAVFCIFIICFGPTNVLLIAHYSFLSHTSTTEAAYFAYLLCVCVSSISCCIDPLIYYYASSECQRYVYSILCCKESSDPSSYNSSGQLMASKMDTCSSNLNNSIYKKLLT
# Protocol: The above-obtained recombinant baculovirus VL-PAR for expressing the PAR was used to infect 1.0×10^7 Sf9 cells sowed on a 75 cm^2 flask at an MOI=2, and was then left and stationally cultured at 27° C. for 40 hours. After the culture, the infected cells were recovered and then subjected to a calcium influx experiment to-confirm the function of the PAR.
# The recovered infected cells (about 5×10^6 cells) were once washed with HEPES-Tyrode buffer solution-Ca^2+ (−) pH 7.4, and then suspended in 5 mL of HEPES-Tyrode buffer solution (containing Fura2-AM, 1 μg/mL) to load the Fura2-AM on the cells at 27° C. for 30 minutes. The suspension was centrifuged at 800 rpm at room temperature for 5 minutes to recover the cells. The cells were twice washed with HEPES-Tyrode buffer solution-Ca^2+ (−) pH 7.4 and then resuspended in 5 mL of HEPES-Tyrode buffer solution-Ca^2+ (−) pH 7.4. The cell suspension was mixed with 5 μL of 1M CaCl2 to give a final concentration of 1 mM CaCl2, and then incubated in a shaded state at room temperature for 5 minutes. The prepared Fura2-AM-loaded infected cells were dispensed into a 96 well plate in a volume of 100 μL/well, further subjected to the dispensation of HEPES-Tyrode buffer solution-C^2+ (+) pH 7.4 in a volume of 80 μL/well, and then assayed with a Fluorescence Drug Screening System (made by Hamamatsu Photonics Co.). Namely, [intensity of 500 nm fluorescent light due to 340 nm exciting light]/[intensity of 500 nm fluorescent light due to 380 nm exciting light] (reflecting the concentration of calcium in the cells) was assayed.
substance,measurement,setting,value
HAST: human airway-specific trypsin-like enzyme; propeptide moiety bound to trypsin-like protein moiety via a disulfide bond,Muc5AC gene expression,[1],promoted
same,Ca2+ influx,PAR-1,observed
